Activity calls are given as the source filed them.
Tests used:
[1] = molecular target: Beta-galactosidase (Escherichia coli, UniProt Q8VNN2); assay: Dose response counterscreen for EBI2 assay utilizing the enzyme, b-galactosidase.; assay type: functional
[2] = molecular target: T1, Long-chain-fatty-acid--AMP ligase FadD28 (Mycobacterium tuberculosis, UniProt P9WQ59); assay: Fluorescence polarization aasay to screen for inhibitors that compete for the binding of FadD28 to a bisubstrate Measured in Biochemical System Using Plate Reader - 2147-01_Inhibitor_Dose_CherryPick_Activity.; assay type: functional, Mycobacterium tuberculosis H37Rv
T1 sequence (P9WQ59 whole entry): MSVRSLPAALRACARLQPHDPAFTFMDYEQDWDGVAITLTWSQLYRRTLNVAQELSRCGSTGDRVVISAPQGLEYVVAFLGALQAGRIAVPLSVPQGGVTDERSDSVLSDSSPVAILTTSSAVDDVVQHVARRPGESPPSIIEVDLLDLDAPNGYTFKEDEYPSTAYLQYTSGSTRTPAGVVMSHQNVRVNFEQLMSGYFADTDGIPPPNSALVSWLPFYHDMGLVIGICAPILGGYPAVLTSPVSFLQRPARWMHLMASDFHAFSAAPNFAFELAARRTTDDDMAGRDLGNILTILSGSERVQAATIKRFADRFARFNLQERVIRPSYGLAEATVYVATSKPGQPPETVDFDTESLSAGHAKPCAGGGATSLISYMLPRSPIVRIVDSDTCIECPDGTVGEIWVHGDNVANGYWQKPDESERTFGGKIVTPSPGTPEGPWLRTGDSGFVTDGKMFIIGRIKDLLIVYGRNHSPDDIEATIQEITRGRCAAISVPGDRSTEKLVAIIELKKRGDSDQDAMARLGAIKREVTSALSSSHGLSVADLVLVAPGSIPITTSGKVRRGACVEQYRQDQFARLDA

[3] = NIH-3T3 fibroblast cytotoxicity, dose response, cytotoxicity control, cell-based, fluorescence, Alamar Blue, secondary assay (AID 2327); assay type: functional;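 note: NIH-3T3 mouse fibroblasts cultured with fluconazole at 8 µg/mL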
[4] = system: Streptococcus sp. 'group A'; assay: growth inhibition of control SK(-) GAS strain, dose response, counter-screen for streptokinase expression inhibitor project, luminescence, kanamycin, BacTiterGlo, confirmation (AID 1900); assay type: functional, organism-based
[5] = cells; assay type: functional, cell-based
[6] = molecular target: T2, Heat shock factor protein 1 (Mus musculus, UniProt P38532); assay: inhibition of MG132-induced HSE-luciferase signal, confirmation, cell-based, NIH3T3, luminescence, dose retest (AID 2382); assay type: functional;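 note: NIH3T3 fibroblasts with HSF1-driven luciferase reporter stressed by proteasome inhibitor MG132; luminescence from HSF1-driven luciferase expression after 8 hours of MG132 stress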
T2 sequence (P38532 whole entry): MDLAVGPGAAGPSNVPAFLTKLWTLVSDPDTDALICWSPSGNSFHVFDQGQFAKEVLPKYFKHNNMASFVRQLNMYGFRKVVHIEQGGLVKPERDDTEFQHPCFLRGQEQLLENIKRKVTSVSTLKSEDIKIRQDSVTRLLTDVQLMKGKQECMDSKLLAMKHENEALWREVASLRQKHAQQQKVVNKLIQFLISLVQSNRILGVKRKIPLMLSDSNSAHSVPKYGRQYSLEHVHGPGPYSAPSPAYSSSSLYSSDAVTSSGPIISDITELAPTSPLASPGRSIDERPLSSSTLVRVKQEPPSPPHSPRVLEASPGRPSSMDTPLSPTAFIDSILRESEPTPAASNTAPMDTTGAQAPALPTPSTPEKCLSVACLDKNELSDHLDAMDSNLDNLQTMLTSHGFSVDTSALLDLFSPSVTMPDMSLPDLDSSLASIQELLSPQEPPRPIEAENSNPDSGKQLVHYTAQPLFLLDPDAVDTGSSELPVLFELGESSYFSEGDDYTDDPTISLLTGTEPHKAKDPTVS

[7] = C. albicans growth with fluconazole, confirmation, fluorescence, retest (AID 2467); assay type: functional, cell-based
[8] = cells; assay type: functional, cell-based; remark: listed apart in the source
[9] = system: Streptococcus; assay: Group A Streptococcus viability loss, dose response, counter-screen for streptokinase expression inhibitor project, luminescence, BacTiterGlo (AID 1915); assay type: functional, organism-based;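 note: potency for reduction of bacterial viability or growth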
[10] = molecular target: Nonstructural protein 1 (Influenza A virus, UniProt Q194T2); assay type: functional, Influenza A virus (A/California/07/2009(H1N1))
Chain of Nonstructural protein 1 (Q194T2 whole entry): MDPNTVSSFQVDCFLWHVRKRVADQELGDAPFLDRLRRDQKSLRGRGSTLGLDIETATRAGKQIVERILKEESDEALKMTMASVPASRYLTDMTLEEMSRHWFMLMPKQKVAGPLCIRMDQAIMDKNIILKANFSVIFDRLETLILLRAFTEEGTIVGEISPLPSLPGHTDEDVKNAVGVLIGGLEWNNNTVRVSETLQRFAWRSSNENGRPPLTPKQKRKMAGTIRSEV

[11] = molecular target: Heat shock protein HSP 90-alpha (Homo sapiens, UniProt P07900); assay type: functional, organism-based
[12] = system: Vero; assay: cells; assay type: functional; conditions: Chlorocebus sabaeus
[13] = molecular target: T3, Caspase-6 (Homo sapiens, UniProt P55212); assay: human caspase-6 inhibitors, dose response, biochemical, VEID-R110 fluorescence, cherry-pick (AID 720632)
T3 sequence (P55212 whole entry): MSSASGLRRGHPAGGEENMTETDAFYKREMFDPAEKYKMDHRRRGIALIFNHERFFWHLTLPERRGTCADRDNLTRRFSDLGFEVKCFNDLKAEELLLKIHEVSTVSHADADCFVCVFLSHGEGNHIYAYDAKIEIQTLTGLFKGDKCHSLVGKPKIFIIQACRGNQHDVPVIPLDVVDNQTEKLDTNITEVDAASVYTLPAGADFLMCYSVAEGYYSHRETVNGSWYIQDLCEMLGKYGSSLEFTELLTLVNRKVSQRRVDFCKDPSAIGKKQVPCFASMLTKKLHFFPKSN

[14] = molecular target: T4, Histone-lysine N-methyltransferase NSD2 (Homo sapiens, UniProt O96028); assay type: biochemical
T4 sequence (O96028 whole entry): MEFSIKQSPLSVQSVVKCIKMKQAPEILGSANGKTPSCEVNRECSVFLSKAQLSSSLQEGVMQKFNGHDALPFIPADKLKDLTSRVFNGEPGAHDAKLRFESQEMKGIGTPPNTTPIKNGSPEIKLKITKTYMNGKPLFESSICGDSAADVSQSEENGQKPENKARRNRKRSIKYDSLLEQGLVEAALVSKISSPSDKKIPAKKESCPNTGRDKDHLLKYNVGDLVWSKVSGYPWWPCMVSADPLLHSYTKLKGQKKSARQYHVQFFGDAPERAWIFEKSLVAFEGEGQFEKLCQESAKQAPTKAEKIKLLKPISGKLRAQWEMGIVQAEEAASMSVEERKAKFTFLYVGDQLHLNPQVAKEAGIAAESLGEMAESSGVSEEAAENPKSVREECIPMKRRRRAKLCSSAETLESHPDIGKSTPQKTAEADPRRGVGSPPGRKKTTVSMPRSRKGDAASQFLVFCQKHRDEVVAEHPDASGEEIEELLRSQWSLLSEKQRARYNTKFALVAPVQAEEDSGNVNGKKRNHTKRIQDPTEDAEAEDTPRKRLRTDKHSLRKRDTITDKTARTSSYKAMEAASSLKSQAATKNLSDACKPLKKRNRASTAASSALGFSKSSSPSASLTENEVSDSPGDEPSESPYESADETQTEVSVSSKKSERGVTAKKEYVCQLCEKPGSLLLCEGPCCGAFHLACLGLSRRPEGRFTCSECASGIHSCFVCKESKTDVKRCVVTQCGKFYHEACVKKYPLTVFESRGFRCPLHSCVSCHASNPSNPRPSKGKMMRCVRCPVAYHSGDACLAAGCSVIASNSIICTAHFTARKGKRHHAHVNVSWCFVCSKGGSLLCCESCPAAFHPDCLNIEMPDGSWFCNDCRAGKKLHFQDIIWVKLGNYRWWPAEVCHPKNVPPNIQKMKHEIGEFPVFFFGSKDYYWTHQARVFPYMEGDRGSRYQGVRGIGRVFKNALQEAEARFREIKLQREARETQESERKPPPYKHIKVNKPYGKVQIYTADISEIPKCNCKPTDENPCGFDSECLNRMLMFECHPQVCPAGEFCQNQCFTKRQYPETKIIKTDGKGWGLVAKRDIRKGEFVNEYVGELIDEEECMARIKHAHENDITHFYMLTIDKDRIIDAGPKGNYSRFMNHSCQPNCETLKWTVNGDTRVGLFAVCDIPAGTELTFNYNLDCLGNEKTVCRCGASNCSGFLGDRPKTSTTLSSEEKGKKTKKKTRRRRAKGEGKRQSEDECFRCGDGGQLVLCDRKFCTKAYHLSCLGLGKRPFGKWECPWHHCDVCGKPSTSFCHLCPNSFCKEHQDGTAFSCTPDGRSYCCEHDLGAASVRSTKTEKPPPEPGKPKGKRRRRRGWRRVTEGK

[15] = off-target signal loss in HeLa-CEM21 co-culture – HeLa F-luc CTL cells, cherry-picked, counter-screen for HIV-1 Env fusion inhibitor project, dose response (AID 652040); assay type: functional, cell-based;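 note: potency for signal decrease marking cytotoxic or nonspecific inhibition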
[16] = inhibitors of HIV Env-driven cell fusion, dose response, cherry-pick (AID 652057); assay type: functional, cell-based
[17] = ZM109 Env clade C HIV-1 fusion inhibitors, dose response, HeLa effector, CEM target cells, luciferase, cherry-pick (AID 652058); assay type: functional, cell-based
[18] = inhibitors of clade B AD8 Env fusion, dose response, cell-based, cherry-pick (AID 652062); assay type: functional;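 note: luciferase signal from cell-cell fusion driven by HIV-1 clade B AD8 Env; potency is for inhibitors of fusion seen as a drop in luminescence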
[19] = CEM21 lymphoblast cell cytotoxicity, dose response, cytotoxicity control for viral fusion inhibitor project, CellTiter-Glo luminescence, cherry-picked (AID 652042); assay type: functional, cell-based;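 note: potency for signal decrease meaning cytotoxicity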
[20] = molecular target: T5, Rac GTPase-activating protein 1 (Homo sapiens, UniProt Q9H0H5); assay: MgcRacGAP GTPase-activating activity inhibitors, confirmation, biochemical, ADP Hunter fluorescence, primary and confirmatory (AID 624330); assay type: functional
T5 sequence (Q9H0H5 whole entry): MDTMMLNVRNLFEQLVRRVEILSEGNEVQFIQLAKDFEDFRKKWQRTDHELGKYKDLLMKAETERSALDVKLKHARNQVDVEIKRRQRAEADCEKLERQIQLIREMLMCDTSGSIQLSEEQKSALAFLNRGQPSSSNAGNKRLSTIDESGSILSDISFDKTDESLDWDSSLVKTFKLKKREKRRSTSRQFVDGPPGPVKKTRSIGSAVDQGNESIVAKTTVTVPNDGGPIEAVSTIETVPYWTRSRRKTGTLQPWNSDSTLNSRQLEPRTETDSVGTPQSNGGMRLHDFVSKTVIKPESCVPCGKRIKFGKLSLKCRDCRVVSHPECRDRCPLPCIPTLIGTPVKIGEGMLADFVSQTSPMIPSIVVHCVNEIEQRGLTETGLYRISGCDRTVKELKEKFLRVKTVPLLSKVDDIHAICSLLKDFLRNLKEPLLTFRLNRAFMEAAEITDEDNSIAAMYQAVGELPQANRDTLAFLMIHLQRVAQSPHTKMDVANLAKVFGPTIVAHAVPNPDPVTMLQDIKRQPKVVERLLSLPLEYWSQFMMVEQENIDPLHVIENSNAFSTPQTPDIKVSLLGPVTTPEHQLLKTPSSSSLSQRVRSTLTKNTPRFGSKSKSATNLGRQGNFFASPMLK

[21] = T. cruzi growth inhibition in host cells, dose response, cell-based, plate reader, dry powder, set 2 (AID 652275); assay type: functional
[22] = system: P388/ADR; assay: cells; assay type: functional; conditions: Mus musculus
[23] = system: SN12K1; assay: cells; assay type: functional; conditions: Homo sapiens
[24] = system: P388; assay: cells; assay type: functional; conditions: Mus musculus
[25] = molecular target: T6, Fatty acid synthase (Homo sapiens, UniProt P49327); assay: FAS thioesterase domain inhibitors, dose response, biochemical, endpoint fluorescence intensity, uHTS hits (AID 624327); assay type: functional;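 note: fluorescence from hydrolysis of an O-methyl fluorescein acyl ester substrate by the enzyme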
T6 sequence (P49327 whole entry, the tested form may be a part): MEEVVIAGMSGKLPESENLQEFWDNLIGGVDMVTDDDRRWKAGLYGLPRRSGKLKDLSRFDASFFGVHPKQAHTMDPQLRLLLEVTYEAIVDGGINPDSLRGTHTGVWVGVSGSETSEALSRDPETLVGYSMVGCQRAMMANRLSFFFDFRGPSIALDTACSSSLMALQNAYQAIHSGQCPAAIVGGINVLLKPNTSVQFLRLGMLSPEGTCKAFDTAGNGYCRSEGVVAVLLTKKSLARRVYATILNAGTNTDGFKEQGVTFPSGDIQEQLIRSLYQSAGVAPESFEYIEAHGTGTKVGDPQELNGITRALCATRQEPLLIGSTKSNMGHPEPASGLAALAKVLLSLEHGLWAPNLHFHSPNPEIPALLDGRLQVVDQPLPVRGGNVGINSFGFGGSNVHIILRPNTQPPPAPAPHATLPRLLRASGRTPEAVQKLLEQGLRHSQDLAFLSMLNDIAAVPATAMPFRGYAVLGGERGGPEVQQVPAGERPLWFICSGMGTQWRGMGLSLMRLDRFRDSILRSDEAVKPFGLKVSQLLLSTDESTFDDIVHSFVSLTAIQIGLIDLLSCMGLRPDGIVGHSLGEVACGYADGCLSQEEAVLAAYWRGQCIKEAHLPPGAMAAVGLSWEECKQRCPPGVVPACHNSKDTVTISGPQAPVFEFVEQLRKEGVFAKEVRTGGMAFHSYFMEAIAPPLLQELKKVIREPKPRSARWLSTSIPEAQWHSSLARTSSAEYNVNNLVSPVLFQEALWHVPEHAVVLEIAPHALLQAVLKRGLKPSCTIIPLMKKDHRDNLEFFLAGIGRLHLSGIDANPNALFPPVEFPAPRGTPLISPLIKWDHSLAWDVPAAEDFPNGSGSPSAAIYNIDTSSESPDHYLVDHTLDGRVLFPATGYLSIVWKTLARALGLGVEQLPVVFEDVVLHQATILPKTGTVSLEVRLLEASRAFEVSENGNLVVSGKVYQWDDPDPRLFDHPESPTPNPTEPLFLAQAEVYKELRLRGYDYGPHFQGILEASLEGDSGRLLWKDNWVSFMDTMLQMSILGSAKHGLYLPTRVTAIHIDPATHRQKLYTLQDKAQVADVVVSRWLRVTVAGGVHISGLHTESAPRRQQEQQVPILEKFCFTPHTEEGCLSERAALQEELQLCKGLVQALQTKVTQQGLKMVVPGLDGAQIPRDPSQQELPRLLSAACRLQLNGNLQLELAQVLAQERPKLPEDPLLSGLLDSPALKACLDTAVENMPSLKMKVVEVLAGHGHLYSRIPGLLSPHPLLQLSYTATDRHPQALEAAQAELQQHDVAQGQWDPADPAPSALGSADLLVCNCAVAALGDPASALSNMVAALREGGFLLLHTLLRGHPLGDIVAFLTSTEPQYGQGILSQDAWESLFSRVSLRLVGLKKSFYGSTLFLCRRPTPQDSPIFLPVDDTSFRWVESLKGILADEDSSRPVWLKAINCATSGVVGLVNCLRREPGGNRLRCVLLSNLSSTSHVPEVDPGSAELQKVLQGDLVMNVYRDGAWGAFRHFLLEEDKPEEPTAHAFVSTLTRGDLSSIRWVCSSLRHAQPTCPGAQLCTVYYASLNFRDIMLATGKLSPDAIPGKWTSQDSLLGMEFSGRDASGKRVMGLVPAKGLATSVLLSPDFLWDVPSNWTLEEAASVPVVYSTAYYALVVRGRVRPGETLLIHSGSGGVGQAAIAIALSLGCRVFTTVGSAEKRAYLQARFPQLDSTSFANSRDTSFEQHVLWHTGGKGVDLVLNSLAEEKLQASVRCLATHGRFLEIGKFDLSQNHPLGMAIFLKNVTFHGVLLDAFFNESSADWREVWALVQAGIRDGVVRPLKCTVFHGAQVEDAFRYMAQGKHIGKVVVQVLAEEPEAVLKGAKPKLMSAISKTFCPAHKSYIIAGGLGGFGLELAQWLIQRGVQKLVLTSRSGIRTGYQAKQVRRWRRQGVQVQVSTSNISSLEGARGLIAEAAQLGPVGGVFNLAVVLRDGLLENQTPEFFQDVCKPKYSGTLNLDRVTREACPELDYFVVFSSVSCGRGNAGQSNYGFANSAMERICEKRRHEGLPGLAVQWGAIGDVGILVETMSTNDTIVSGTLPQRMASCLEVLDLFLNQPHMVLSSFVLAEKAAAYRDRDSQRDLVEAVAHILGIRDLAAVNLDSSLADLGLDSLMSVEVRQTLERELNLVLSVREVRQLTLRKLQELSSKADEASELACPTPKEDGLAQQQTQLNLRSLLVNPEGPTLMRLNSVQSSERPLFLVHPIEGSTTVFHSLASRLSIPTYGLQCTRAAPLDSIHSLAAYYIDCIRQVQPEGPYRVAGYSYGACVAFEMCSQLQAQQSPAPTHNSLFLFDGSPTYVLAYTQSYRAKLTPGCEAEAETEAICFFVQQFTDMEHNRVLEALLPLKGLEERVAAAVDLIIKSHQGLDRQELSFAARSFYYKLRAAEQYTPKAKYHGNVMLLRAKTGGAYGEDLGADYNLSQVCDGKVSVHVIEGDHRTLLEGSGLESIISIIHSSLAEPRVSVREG

[26] = molecular target: T6, Fatty acid synthase; assay: FAS thioesterase domain inhibitors, dose response, biochemical, kinetic fluorescence intensity (AID 624326); assay type: functional;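 note: rate of fluorescence rise from hydrolysis of a fluorogenic O-methyl fluorescein ester substrate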

Chain of Beta-galactosidase (Q8VNN2 whole entry): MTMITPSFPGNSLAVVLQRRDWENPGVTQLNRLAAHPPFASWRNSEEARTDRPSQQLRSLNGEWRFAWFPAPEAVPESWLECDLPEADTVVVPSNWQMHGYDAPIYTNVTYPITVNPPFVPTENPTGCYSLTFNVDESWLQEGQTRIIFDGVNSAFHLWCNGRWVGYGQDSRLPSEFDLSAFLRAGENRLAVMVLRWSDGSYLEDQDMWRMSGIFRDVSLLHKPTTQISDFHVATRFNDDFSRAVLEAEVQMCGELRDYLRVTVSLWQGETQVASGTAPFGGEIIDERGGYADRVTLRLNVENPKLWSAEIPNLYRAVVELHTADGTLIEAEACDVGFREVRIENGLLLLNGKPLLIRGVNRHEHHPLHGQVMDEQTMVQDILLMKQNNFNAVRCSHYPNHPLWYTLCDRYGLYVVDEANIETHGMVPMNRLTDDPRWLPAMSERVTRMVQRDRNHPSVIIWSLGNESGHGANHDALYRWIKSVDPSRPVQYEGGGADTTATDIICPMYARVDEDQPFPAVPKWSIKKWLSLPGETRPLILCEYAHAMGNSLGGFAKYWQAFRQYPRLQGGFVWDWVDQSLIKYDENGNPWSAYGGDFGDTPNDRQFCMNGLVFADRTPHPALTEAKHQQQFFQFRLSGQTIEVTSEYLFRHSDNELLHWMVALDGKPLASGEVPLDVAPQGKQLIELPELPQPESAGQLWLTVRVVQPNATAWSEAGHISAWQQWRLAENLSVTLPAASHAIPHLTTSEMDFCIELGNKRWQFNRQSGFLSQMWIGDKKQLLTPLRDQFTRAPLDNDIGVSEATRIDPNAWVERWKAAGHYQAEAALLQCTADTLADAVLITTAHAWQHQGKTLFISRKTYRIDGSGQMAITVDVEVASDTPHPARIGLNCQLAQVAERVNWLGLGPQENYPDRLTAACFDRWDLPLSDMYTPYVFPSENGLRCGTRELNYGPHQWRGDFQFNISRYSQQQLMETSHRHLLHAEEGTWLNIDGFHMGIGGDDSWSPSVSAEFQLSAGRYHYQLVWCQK

Cc1ccc(NN=C(S)Nc2ccc(C(C)C)cc2)c(C)c1
IC50 [1]: 66.1 µM (inactive)

O=C(CN1C(=O)NC2(CCOc3ccccc32)C1=O)c1ccc(Br)cc1 (stereo not given)
AC50 [2]: 98.9 µM (active)

Cc1ccc2oc(=O)c3cnn(CC(=O)N(Cc4ccco4)C4CCCCC4)c3c2c1
IC50 [1]: > 80 µM (inactive)

COc1ccccc1N=Nc1ccc(O)c2ncccc12
EC50 [3]: > 160 µM (inactive) | EC50 [4]: 1.17 µM (active) | EC50 [5]: 102 µM (active) | EC50 [6]: 2.29 µM (active) | EC50 [7]: 1.28 µM (active) | EC50 [8]: 38.7 µM (active) | EC50 [9]: 10.3 µM (active) | IC50 [10]: 12.4 µM (active) | AC50 [11]: 3.68 µM (active) | CC50 [12]: 12.2 µM (active) | AC50 [13]: 34.5 µM (active) | AC50 [14]: 11.8 µM (active)

O=C(Nc1cccc(F)c1)c1cc(S(=O)(=O)N2CCC(C(=O)O)CC2)ccc1F
AC50 [15]: 28.9 µM (active)

O=C(CN(Cc1ccccc1F)S(=O)(=O)c1ccc(Cl)cc1)NCCC1=CCCCC1
AC50 [16]: 4.11 µM (active) | AC50 [17]: 4.59 µM (active) | AC50 [15]: 6.77 µM (active) | AC50 [18]: 25.6 µM (active)

Cc1onc(-c2ccccc2)c1C(=O)NC(=S)NNC(=O)c1ccc(O)cc1
EC50 [4]: 0.547 µM (active) | EC50 [9]: 9.46 µM (active) | AC50 [19]: 67.3 µM (active) | AC50 [18]: 10.5 µM (active)

Cc1ccc(OCC(=O)N2CCN(Cc3ccc([N+](=O)[O-])cc3)CC2)cc1
IC50 [20]: 163 µM (active) | IC50 [1]: > 80 µM (inactive)

COc1cc(/C=C2\C(=O)NN(c3ccc(C)cc3)C2=O)cc([N+](=O)[O-])c1O
AC50 [2]: 86.9 µM (active)

CCOC(=O)[C@]12CCC=C1N(Cc1ccc3c(c1)OCO3)C(=O)[C@H](CC(=O)NCC13CC4CC(CC(C4)C1)C3)C2
AC50 [16]: 16.5 µM (active) | AC50 [19]: 34 µM (active) | AC50 [17]: 22.7 µM (active)

C[C@H]1CN([C@@H](C)CO)C(=O)c2cccc(NC(=O)c3ccncc3)c2O[C@@H]1CN(C)Cc1ccc(Cl)cc1
AC50 [21]: 0.00712 µM (active)

CC(C)(C)[S+]([O-])N1Cc2cc(C(=O)NCc3ccc4c(c3)OCO4)nc(-c3cccc(C#CCC4CCCC4)c3)c2[C@H]1CCO (stereo not given in full)
AC50 [21]: 1.01 µM (active)

CC(C)(C)[S@+]([O-])N1Cc2cc(C(=O)NCc3ccc4c(c3)OCO4)nc(-c3cccc(-c4ccncc4)c3)c2[C@@H]1CCO
AC50 [21]: 0.152 µM (active)

COC1C(O)C(C)OC(OC2C(Oc3cccc4c(O)c5c(=O)oc6ccc(C)c7c(=O)oc(c34)c5c67)OC(C)C(O)C2O)C1O (stereo not given)
GI50 [22]: 7.08 µM (inactive) | GI50 [23]: 0.593 µM (active) | GI50 [24]: 0.598 µM (active) | AC50 [14]: > 20 µM (inactive)

CC1=C(O)C(=O)C(c2c(C)cc(C)c(Br)c2C)=C(O)C1=O
AC50 [2]: 51.8 µM (active) | IC50 [25]: 10.8 µM (active) | IC50 [26]: 9.46 µM (active)

Source: ChEMBL document CHEMBL1201862, “PubChem BioAssay data set” (2004)
